Test results: PMC9551036, “A selective and orally bioavailable VHL-recruiting PROTAC achieves SMARCA2 degradation in vivo” (Nature Communications, 2022)
“And” between values parts separate entries of the source, which are not always exact repeats. Equal entries are not always repeated. Where two headings read alike, the source gives them in different places.

How the values were obtained:
NCI-H1568 cells = experiment: Cell viability assay (CellTiter Glo) in NCI-H1568; type: cell-based, human; conditions: for EC50: read-out: EC50 cell proliferation (CellTiter Glo); for IC50: CellTiter Glo, individual replicates, read-out: NCI-H1568 (18h) CTG
Protocol: 500–2000 cells were seeded in white, clear bottom 96-well plates (Corning or Perkin Elmer) in 180–200 µl medium per well. The next day, compounds were added using a digital dispenser and a T0 sample was measured for reference. […], and viability (luminescence) was measured using CellTiter Glo or CellTiter Glo 2.0 (Promega) according to manufacturer’s instructions after equilibrating cells and reagents at room temperature and 10–20 min incubation time while shaking.

SMARCA2 [1] = target: T1, SMARCA2 (Homo sapiens, UniProt P51531); experiment: Imaging-based SMARCA2 protein assay in RKO cells; type: cell-based; parameters: endogenous in cells; host or cells: RKO, NCI-H1568, A549, HCT116, LU99, HCC-364, HCT-15, HCC4006, SK-N-AS; conditions: individual replicates
T1 sequence (P51531 whole entry): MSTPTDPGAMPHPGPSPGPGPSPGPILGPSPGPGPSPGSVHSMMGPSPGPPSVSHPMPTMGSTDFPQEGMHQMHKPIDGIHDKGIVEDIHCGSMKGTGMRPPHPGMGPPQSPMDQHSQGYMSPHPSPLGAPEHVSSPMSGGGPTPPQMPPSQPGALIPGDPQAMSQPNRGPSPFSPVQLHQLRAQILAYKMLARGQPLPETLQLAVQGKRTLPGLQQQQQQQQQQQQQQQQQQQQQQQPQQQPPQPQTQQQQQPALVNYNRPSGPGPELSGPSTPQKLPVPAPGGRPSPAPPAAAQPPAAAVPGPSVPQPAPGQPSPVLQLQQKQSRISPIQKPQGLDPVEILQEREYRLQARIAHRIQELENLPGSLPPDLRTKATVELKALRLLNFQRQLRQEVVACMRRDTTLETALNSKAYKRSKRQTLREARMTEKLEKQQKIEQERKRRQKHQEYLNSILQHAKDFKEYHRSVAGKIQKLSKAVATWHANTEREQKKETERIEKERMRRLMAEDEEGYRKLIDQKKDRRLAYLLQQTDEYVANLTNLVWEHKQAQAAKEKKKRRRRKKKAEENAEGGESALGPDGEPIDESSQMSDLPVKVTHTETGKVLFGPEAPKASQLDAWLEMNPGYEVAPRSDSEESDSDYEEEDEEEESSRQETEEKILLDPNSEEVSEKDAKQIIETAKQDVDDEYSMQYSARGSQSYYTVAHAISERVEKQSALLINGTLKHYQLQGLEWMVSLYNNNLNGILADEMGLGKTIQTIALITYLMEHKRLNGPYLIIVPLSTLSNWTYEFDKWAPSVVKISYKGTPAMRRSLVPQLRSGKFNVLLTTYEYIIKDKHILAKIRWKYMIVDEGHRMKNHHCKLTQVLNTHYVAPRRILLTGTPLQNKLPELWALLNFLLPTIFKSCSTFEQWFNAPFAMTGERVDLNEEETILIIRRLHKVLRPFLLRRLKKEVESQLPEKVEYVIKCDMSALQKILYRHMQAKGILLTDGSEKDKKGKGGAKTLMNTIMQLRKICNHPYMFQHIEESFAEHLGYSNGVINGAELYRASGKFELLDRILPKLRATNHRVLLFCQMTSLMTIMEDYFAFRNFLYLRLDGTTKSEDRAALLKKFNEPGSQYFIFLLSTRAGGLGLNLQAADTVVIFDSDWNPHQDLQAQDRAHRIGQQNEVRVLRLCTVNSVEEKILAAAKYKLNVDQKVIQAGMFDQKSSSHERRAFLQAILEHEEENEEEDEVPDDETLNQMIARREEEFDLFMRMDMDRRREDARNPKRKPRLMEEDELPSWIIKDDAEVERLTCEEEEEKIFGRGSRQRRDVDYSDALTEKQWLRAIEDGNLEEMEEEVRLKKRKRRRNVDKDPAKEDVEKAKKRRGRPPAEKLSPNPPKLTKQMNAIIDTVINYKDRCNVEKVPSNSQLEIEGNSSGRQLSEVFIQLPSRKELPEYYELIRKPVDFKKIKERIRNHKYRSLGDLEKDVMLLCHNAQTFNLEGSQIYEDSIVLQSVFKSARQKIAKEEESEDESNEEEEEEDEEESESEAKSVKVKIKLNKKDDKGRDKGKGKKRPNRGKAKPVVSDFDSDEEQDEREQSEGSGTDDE
Protocol: 1250 cells per well in 60 µl medium were plated in flat bottom, poly-lysin coated 384-well plates (CellCarrier Ultra, Perkin Elmer). The next day, test compounds (10 µl of serial dilutions) and DMSO controls were diluted in DMEM medium such that the final DMSO content was <1% or were added using an ultrasound dispensing system. 4 wells were reserved for a background measurement. […] After aspirating the fixing solution, the cells were washed once with 25 µl PBS. 25 µl of blocking buffer (10% goat serum in PBS) was added and cells were incubated for 30 min, then washed once with PBS. […] Cells were again washed once with PBS. […] The cell layer was then washed once with 25 µl PBS, the wells were filled with 25 µl PBS and the plates were sealed with an adhesive sheet. They were then imaged on the Opera Phoenix (mean intensity in the nucleus). […] EC50 values were computed using a 4-parametric logistic model.

[2] = target: VCB: PROTAC: SMARCA2^BD ternary complex (Homo sapiens, UniProt P40337+P51531); experiment: TR-FRET ternary complex affinity and cooperativity, SMARCA2; type: binding; parameters: P51531-2, residues 1373-1493 with additional N-terminal SM residues; GST (TEV site) (N); His6 (TEV site) (N, cleaved yes); made in house; host or cells: SMARCA2^BD: Escherichia coli BL21(DE3)
Sequence of VCB: PROTAC: SMARCA2^BD ternary complex (P51531 with tags, fused parts or gaps isoform P51531-2): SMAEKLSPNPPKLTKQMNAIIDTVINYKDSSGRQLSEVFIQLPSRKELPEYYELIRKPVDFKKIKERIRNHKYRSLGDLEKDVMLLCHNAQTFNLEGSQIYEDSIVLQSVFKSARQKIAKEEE
Sequence of VCB: PROTAC: SMARCA2^BD ternary complex (P40337 54-213): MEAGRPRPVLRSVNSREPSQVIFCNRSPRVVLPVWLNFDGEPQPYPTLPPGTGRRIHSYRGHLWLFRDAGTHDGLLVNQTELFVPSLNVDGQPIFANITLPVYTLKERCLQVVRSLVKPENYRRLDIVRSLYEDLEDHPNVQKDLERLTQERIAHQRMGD
Sequence of VCB: PROTAC: SMARCA2^BD ternary complex (Q15369 17-112 partner): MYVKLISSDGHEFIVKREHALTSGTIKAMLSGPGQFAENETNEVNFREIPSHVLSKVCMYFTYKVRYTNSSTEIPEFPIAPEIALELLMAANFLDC
Sequence of VCB: PROTAC: SMARCA2^BD ternary complex (Q15370 1-104 partner): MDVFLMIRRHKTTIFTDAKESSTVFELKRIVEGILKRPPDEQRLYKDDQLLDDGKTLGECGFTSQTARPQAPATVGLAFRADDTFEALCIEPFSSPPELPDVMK

PBRM1 BD = target: T2, PBRM1 BD (Homo sapiens, UniProt Q86U86); experiment: TR-FRET binary and ternary (PROTAC + VCB) affinity, PBRM1 bromodomain; type: binding; conditions: individual replicates
T2 construct: GST (TEV site) (N); made in house; host or cells: Escherichia coli BL21(DE3)

PBRM1BD5 = target: T3, PBRM1BD5 (Homo sapiens, UniProt Q86U86); experiment: TR-FRET ternary complex affinity and cooperativity, PBRM1; type: binding; conditions: TR-FRET competition for PBRM1BD5, without VCB; mean ± SD; read-out: TR-FRET PBRM1BD EC50
T3 construct: GST (TEV site) (N); His6 (TEV site) (N, cleaved yes); made in house; host or cells: PBRM1^BD5: Escherichia coli BL21(DE3)
T3 sequence (Q86U86 645-766): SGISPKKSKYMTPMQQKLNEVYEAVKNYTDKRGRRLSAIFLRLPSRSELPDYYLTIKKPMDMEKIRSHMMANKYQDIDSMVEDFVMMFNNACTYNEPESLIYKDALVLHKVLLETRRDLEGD

SMARCA2 [3] = target: T1, SMARCA2; experiment: SMARCA2 capillary electrophoresis protein assay in RKO cells; type: cell-based; parameters: endogenous in cells; host or cells: RKO, NCI-H1568, A549, HCT116, LU99, HCC-364, HCT-15, HCC4006, SK-N-AS; conditions: mean ± SD; for Dmax: RKO
Protocol: 130,000–200,000 cells were seeded in 24-well plates and incubated until settled down or overnight. Compounds were dissolved in DMSO and added to cells in indicated concentrations using a digital dispenser following an optional media change. […] For SMARCA2/4 half-life determination, 150,000 or 200,000 cells were seeded in 24-well plates. […] For SMARCA2/4 re-synthesis measurements, 200,000 cells were seeded in 24-well plates. […] Medium was removed, cells were washed with PBS and lysed with 80 µl Lysis Buffer (MSD Tris Lysis Buffer (#R60TX-2) + Halt Inhibitor Cocktail (100x) + Benzonase 0.5 µL/ml). Samples were frozen at −80 °C and thawed at room temperature before use. Samples were transferred to a V-bottom plate and insoluble debris was pelleted by centrifugation for 5 min at maximum speed. The supernatant was transferred to a fresh plate. Master Mix and Ladder were prepared according to manufacturer’s instructions for 12–230 kDa Wes Separation Module, 8 × 25 capillary cartridges, Protein Simple #SM-W004 with Anti-Rabbit Detection Module for Wes, Peggy Sue or Sally Sue, Protein Simple #DM-001. 4.8 µl lysate were mixed with 1.2 µl Master Mix to achieve a protein concentration of ~0.5 µg/µl. […] Wes plates were prepared and run according to manufacturer’s instructions. Proteins were quantified with accompanying Compass Software. SMARCA2/4 protein levels were normalised to GAPDH. […] Where applicable, curves were fitted using a 4-parametric logistic model.

[4] = 4h, read-out: RKO (4h) SMARCA2 DC50
[5] = 18h, read-out: RKO (18h) SMARCA2 DC50
[6] = PROTAC + VCB, individual replicates, read-out: Ternary SMARCA2 BD EC50 (PROTAC + VCB)
[7] = TR-FRET competition for SMARCA2BD, + VCB, mean ± SD, read-out: TR-FRET Ternary SMARCA2BD EC50 (PROTAC + VCB)
[8] = PROTAC + VCB, read-out: Ternary PBRM1 BD EC50 (PROTAC + VCB)
[9] = binary, PROTAC alone, read-out: PBRM1 EC50

Compound | EC50 (NCI-H1568 cells; Homo sapiens, NCI-H1568, […]) [nM] | IC50 (NCI-H1568 cells; NCI-H1568, (18h)) | DC50 (SMARCA2 [1]; [4]) | DC50 (SMARCA2 [1]; [5]) | EC50 [2, 6] | EC50 [2, 7] [nM] | EC50 (PBRM1 BD; [8]) | EC50 (PBRM1 BD; [9]) | EC50 (PBRM1BD5) [nM] | DC50 (SMARCA2 [3]; RKO (4 h)) [nM] | DC50 (SMARCA2 [3]; RKO (18 h)) [nM] | Dmax (SMARCA2 [3]; RKO (4 h)) [%] | Dmax (SMARCA2 [3]; RKO (18 h)) [%] | IC50 (NCI-H1568 cells; Homo sapiens, NCI-H1568, 18 h) [nM] | EC50 (NCI-H1568 cells; NCI-H1568 ([…]), mean ± SD) [nM]
Cc1ncsc1-c1ccc([C@H](COC(C)CN2CCC(c3ccc4c(c3)n(C3CCCC3)c3nc(=O)c5c(Br)cccc5n43)CC2)NC(=O)[C@@H]2C[C@@H](O)CN2C(=O)[C@@H](NC(=O)C2(N(C)C)CC2)C(C)(C)C)cc1 (some centres unmarked) [compound 10] | 16 ± 7 | 21.5 nM and 20 nM and 8.75 nM | 8.19 nM and 6.54 nM and 2.93 nM and 10.6 nM | 1.26 nM and 3.06 nM and 6.17 nM | 13.9 nM and 16.3 nM and 16.6 nM and 37.3 nM and 12.6 nM and 9.3 nM and 12.5 nM | 15 ± 9 | 6.43 nM and 7.96 nM and 8.03 nM and 9.7 nM | 30.5 nM and 31.7 nM and 30 nM | 31 ± 1 | 6 ± 3 | 3 ± 3 | 70 ± 2 | 82 ± 5 | – | –
Nc1cccc2c1c(=O)nc1n(C3CCCC3)c3ccccc3n21 [compound 2] | > 10000 | – | > 25000 nM | > 25000 nM | 1910 nM and 2000 nM and 1540 nM and 2490 nM | 1950 | 934 nM and 1020 nM and 925 nM | 1080 nM and 1000 nM and 929 nM | 1000 | > 25000 | > 25000 | – | – | > 10000 | –
Cc1ncsc1-c1ccc(CNC(=O)[C@@H]2C[C@H](O)CN2C(=O)[C@@H](NC(=O)C2(F)CC2)C(C)(C)C)c(OCCN2CCC(c3ccc4c(c3)n(C3CCCC3)c3nc(=O)c5c(Br)cccc5n43)CC2)c1 [compound 19] | – | 595 nM and 1050 nM and 287 nM | > 25000 nM | > 25000 nM | 69.1 nM and 75.9 nM and 70.4 nM | 72 ± 3 | 38.5 nM and 41 nM and 40.2 nM | 35.2 nM and 39.5 nM and 40.1 nM | 38 ± 2 | > 25000 | > 25000 | – | – | – | 564 ± 384
